The values below come from patent US8481571B2, “Anti-coronavirus compounds” (Academia Sinica, priority 2004, dated 2013).

pEC50: −log10 of the molar value.

The test system of data set [1] is severe acute respiratory syndrome virus. The data set is described as follows: organism not typed. The class given is cell-based. Particulars: Vero C1008.

One may read the pEC50 as the EC50 on a negative log10 scale, so that one unit is a factor of ten. Higher therefore signals a low EC50.

Regarding `CC(C)[C@H](NC(=O)OCc1ccccc1)C(=O)N[C@@H](Cc1ccccc1)[C@@H](O)[C@H](O)[C@H](Cc1ccccc1)NC(=O)[C@@H](NC(=O)OC(C)(C)C)C(C)C` [Compound 1], the “inhibitory effect on cell growth” value in the data set with Vero E6 cells was “none of them exhibited inhibitory effect on cell growth”. Moreover, the pEC50 in data set [1] was 4.00 to 6.07.

Molecule `CC(C)=CCC[C@](C)(CO[C@@H]1OC(CO[C@@H]2OC(CO)[C@@H](O)[C@@H](O)C2O)[C@@H](O)[C@@H](O)C1O)C1CC[C@@]2(C)C1C(O)CC1[C@@]3(C)CCC(O[C@@H]4OC(CO)[C@@H](O)[C@@H](O)C4O[C@@H]4OC(CO)[C@@H](O)[C@@H](O)C4O)C(C)(C)C3CC[C@]12C` (stereo partly shown) [Compound 17] gave a negative-log EC50 (pEC50) in data set [1] of 4.00 to 6.07.

As to `O[C@H]1[C@H](O)[C@@H](OCc2cccc(F)c2)CNC[C@@H]1OCc1cccc(F)c1` [Compound 15], the “inhibitory effect on cell growth” value in the data set on Vero E6 cells is “none of them exhibited inhibitory effect on cell growth”. This molecule had a pEC50 in data set [1] of 4.00 to 6.07.

For the molecule `COC(=O)CCCN1C[C@H](OCc2ccccc2)[C@@H](OCc2ccccc2)[C@H](OCc2ccccc2)[C@H]1COCc1ccccc1` [Compound 9], in the data set on Vero E6 cells, the “inhibitory effect on cell growth” value was “none of them exhibited inhibitory effect on cell growth”. In data set [1], this molecule had a negative-log EC50 (pEC50) of 4.00 to 6.07.

Turning to `Cc1cccc(C)c1OCC(=O)N[C@@H](Cc1ccccc1)C[C@H](O)[C@H](Cc1ccccc1)NC(=O)[C@H](CC(C)C)NC(=O)CN1C(=O)CSC1=S` [Compound 30], the negative-log EC50 (pEC50) in data set [1] was 4.00 to 6.07.

With `Cc1cccc(C)c1OCC(=O)N[C@@H](Cc1ccccc1)C[C@H](O)[C@H](Cc1ccccc1)NC(=O)[C@H](CC(C)C)NC(=O)CCNC(=O)OC(C)(C)C` [Compound 33], the negative-log EC50 (pEC50) in data set [1] is 4.00 to 6.07.

In data set [1], `Cc1cccc(C)c1OCC(=O)N[C@@H](Cc1ccccc1)C[C@H](O)[C@H](Cc1ccccc1)NC(=O)[C@H](CC(C)C)NC(=O)COc1ccc2ccccc2c1` [Compound 35] had a pEC50 of 4.00 to 6.07.

For the molecule `CC(C)=CCC[C@](C)(O)[C@H]1CC[C@@H]2[C@@H]1CC[C@H]1[C@@]2(C)CC[C@H]2C(C)(C)C(=O)CC[C@]12C` [Compound 6], in the data set with Vero E6 cells, the “inhibitory effect on cell growth” value was “none of them exhibited inhibitory effect on cell growth”. In data set [1], the pEC50 was 4.00 to 6.07.

Take `COC(=O)[C@H]1[C@H]2C[C@@H]3c4[nH]c5cc(OC)ccc5c4CCN3C[C@H]2C[C@@H](OC(=O)/C=C/c2cc(OC)c(OC)c(OC)c2)[C@@H]1OC` [Compound 19]: the negative-log EC50 (pEC50) in data set [1] was 4.00 to 6.07.

On to `COC(=O)[C@H]1[C@H]2C[C@H]3c4[nH]c5ccccc5c4CCN3C[C@@H]2CC[C@@H]1O` [Compound 22], for which the pEC50 in data set [1] was 4.00 to 6.07.

Regarding `COC(=O)[C@H]1[C@H]2C[C@H]3c4[nH]c5cc(OC)ccc5c4CCN3C[C@H]2C[C@@H](OC(=O)c2cc(OC)c(OC)c(OC)c2)[C@@H]1OC` [Compound 21], in data set [1], the pEC50 is 4.00 to 6.07.

The molecule `COc1ccc(/C=C/C(=O)N[C@@H](CC(C)C)C(=O)N[C@@H](Cc2ccccc2)[C@@H](O)C[C@H](Cc2ccccc2)NC(=O)COc2c(C)cccc2C)cc1` [Compound 32] gave a negative-log EC50 (pEC50) in data set [1] of 4.00 to 6.07.

As to `CCCCCCC1=C2C[C@H]3C(C)(C)C[C@@H](OC1=O)[C@@]23C` [Compound 3], the “inhibitory effect on cell growth” value in the data set on Vero E6 cells was “none of them exhibited inhibitory effect on cell growth”. For the same molecule, in data set [1], the negative logarithm of the EC50 (pEC50) is 4.00 to 6.07.

Consider `CCCCCC12C3=C(c4ccccc4)C(=O)O[C@@H]1CC[C@@H]2C3` (stereo partly shown) [Compound 4], for which the “inhibitory effect on cell growth” value in the data set with Vero E6 cells is given as “none of them exhibited inhibitory effect on cell growth”. Further, in data set [1], the negative-log EC50 (pEC50) is 4.00 to 6.07.

In the case of `COC(=O)[C@@H]1[C@H]2C[C@H]3c4[nH]c5ccccc5c4CCN3C[C@@H]2CC[C@@H]1O` [Compound 24], the negative logarithm of the EC50 (pEC50) in data set [1] was 4.00 to 6.07.

Take `COC(=O)[C@H]1[C@H]2C[C@@H]3c4[nH]c5cc(OC)ccc5c4CCN3C[C@H]2C[C@@H](OC(=O)c2cc(OC)c(OC)c(OC)c2)[C@@H]1OC` [Compound 13]: the “inhibitory effect on cell growth” value in the data set on Vero E6 cells is listed as “none of them exhibited inhibitory effect on cell growth”. Further, the negative-log EC50 (pEC50) in data set [1] was 4.00 to 6.07.

`Cc1cccc(C)c1OCC(=O)N[C@@H](Cc1ccccc1)C[C@H](O)[C@H](Cc1ccccc1)NC(=O)[C@H](CC(C)C)NC(=O)c1ccc([N+](=O)[O-])o1` [Compound 25] had a pEC50 in data set [1] of 4.00 to 6.07.

Turning to `CC1(C)CCC2(C(=O)O)CC[C@@]3(C)C(=CCC4[C@@]5(C)CCC(O[C@@H]6OC(O)[C@@H](O)[C@@H](O)C6O[C@@H]6OC(O)[C@@H](O)[C@@H](O)C6O)C(C)(CO)C5CC[C@]43C)C2C1` (stereo partly shown) [Compound 16], the negative logarithm of the EC50 (pEC50) in data set [1] was 4.00 to 6.07.

Consider `Cc1cccc(C)c1OCC(=O)N[C@@H](Cc1ccccc1)C[C@H](O)[C@H](Cc1ccccc1)NC(=O)[C@H](CC(C)C)NC(=O)CSc1ccccn1` [Compound 28], for which, in data set [1], the pEC50 is 4.00 to 6.07.

The molecule `Cc1cccc(C)c1OCC(=O)N[C@@H](Cc1ccccc1)C[C@H](O)[C@H](Cc1ccccc1)NC(=O)[C@H](CC(C)C)NC(=O)c1ccc(C(F)(F)F)cc1` [Compound 31] gave a negative-log EC50 (pEC50) in data set [1] of 4.00 to 6.07.

`Cc1cccc(C(=O)N[C@@H](CC(C)C)C(=O)N[C@@H](Cc2ccccc2)[C@@H](O)C[C@H](Cc2ccccc2)NC(=O)COc2c(C)cccc2C)c1` [Compound 27]: the pEC50 in data set [1] is 4.00 to 6.07.

In data set [1], `COC(=O)C1=COC[C@H]2CN3CCc4c([nH]c5ccccc45)[C@@H]3C[C@H]12` [Compound 20] gave a negative-log EC50 (pEC50) of 4.00 to 6.07.

In data set [1], `Cc1cccc(C)c1OCC(=O)N[C@@H](Cc1ccccc1)C[C@H](O)[C@H](Cc1ccccc1)NC(=O)[C@H](CC(C)C)NC(=O)C1=CCOc2ccc(Cl)cc21` [Compound 34] gave a negative logarithm of the EC50 (pEC50) of 4.00 to 6.07.

On to `COC(=O)C1[C@H]2C[C@H]3c4[nH]c5ccccc5c4CCN3C[C@H]2CC[C@@H]1O` (stereo partly shown) [Compound 23], for which the pEC50 in data set [1] was 4.00 to 6.07.

In turn, `Cc1cccc(C)c1OCC(=O)N[C@@H](Cc1ccccc1)C[C@H](O)[C@H](Cc1ccccc1)NC(=O)[C@H](CC(C)C)NC(=O)c1cc2ccccc2[nH]1` [Compound 29] gave a negative logarithm of the EC50 (pEC50) in data set [1] of 4.00 to 6.07.

For the molecule `CC(C)[C@H](NC(=O)[C@H](C)NC(=O)OCc1ccccc1)C(=O)N[C@@H](Cc1ccccc1)[C@@H](O)[C@H](O)[C@H](Cc1ccccc1)NC(=O)[C@@H](NC(=O)[C@H](C)NC(=O)OCc1ccccc1)C(C)C` [Compound 2], in the data set with Vero E6 cells, the “inhibitory effect on cell growth” value was “none of them exhibited inhibitory effect on cell growth”. In addition, in data set [1], the negative logarithm of the EC50 (pEC50) is 4.00 to 6.07.

As for `CC[C@H]1OC(=O)[C@H](C)C(=O)[C@H](C)[C@@H](O[C@@H]2C[C@H](C)C[C@H](N(C)C)[C@H]2O)[C@@](C)(OC)C[C@@H](C)CN(C(=O)CCCn2cc(-c3ccc(C(F)(F)F)cc3)nn2)[C@H](C)[C@@H](O)[C@]1(C)O` [Compound 11], in the data set on Vero E6 cells, the “inhibitory effect on cell growth” value is reported as “none of them exhibited inhibitory effect on cell growth”. For the same molecule, the pEC50 in data set [1] is 4.00 to 6.07.

On to `CC1(C)CC2C3=CCC4[C@@](C)(CCC5[C@@H](O)C(O[C@@H]6OC(CO)[C@@H](O)[C@@H](O)C6O[C@@H]6OC(CO)[C@@H](O)[C@@H](O)C6O)CC[C@@]54C)C3CC[C@@]2(C)[C@H](O)C1` (stereo partly shown) [Compound 18], for which the pEC50 in data set [1] is 4.00 to 6.07.
